Results on three compounds are retold here after ChEMBL document CHEMBL3508693 (2016).

The structures appear in SMILES notation.

One data set has as its target CYP2C9 (Homo sapiens, UniProt P11712). The data set is described as follows: Inhibitory activity of 20 uM SPP100 on 258 Pmoles of cDNA-derived CYP2C9 enzyme in microsome prepared from human lymphoblastoid cell line. It is filed as ADME, microsomes. Further details: conc 20 uM, interact cpd conc 6 uM. As to conditions: probe diclofenac.
Data set [1] can be described thus: %Unchanged aliskiren in faeces following 10 day repeated oral administration of [14C] aliskiren hemifumarate at 100 mg.Kg-1 level studied in rat. The settings on record: in vivo, 240 h. It is filed as ADME, organism-based, Albino HAN:WIST, Feces.
Another data set concerns the target Cytochrome P450 2D6 (Homo sapiens, UniProt P10635). The data set is described as follows: Involvement of CYP2D6 in the metabolism of [14C] aliskiren hemifumarate based on studies with microsomes from baculovirus-infected insect cells expressing recombinant human CYP450s and studies with pooled human liver microsomes from 22 donors. It is filed as ADME, Microsome. (Liver microsomes are a subcellular fraction often used to study metabolism.)

The nature of data set [2]: Concentration of radioactivity in the liver following repeated oral administration of [14C] aliskiren hemifumarate at 100 mg.Kg-1 level studied at 24h after 3rd dose in rat. The settings on record: in vivo. It is filed as ADME, organism-based, Albino HAN:WIST.
A short description of data set [3]: Excretion of radioactivity (48-72h) in faeces following single intravenous dose of 10 mg.Kg-1 [14C] aliskiren hemifumarate in rat. It is filed as ADME, organism-based, Albino HAN:WIST, Feces. As to conditions: in vivo.
Data set [4] is described as follows: Excretion of radioactivity (0-24h) in faeces following single intravenous dose of 10 mg.Kg-1 [14C] aliskiren hemifumarate in mouse. It is filed as ADME, organism-based, TgRasH2, Feces. As to conditions: in vivo.
Data set [5] is described as follows: Mean excretion of radioactivity (0-24h) in urine and faeces following single oral dose of 100 mg.Kg-1 [14C] aliskiren hemifumarate in rat. The settings on record: in vivo. It is filed as ADME, organism-based, Albino HAN:WIST, Urine/Feces.
The nature of data set [6]: Tmax of [14C] aliskiren hemifumarate following single oral dose of [14C] aliskiren hemifumarate at 500 mg.Kg-1 level in mouse. It is filed as ADME, organism-based, TgRasH2, Plasma. The settings on record: in vivo.
The nature of data set [7]: Excretion of radioactivity (48-72h) in urine following single oral dose of 100 mg.Kg-1 [14C] aliskiren hemifumarate in rat. It is filed as ADME, organism-based, Albino HAN:WIST. The settings on record: in vivo.
A short description of data set [8]: AUC (0-96h) of total radioactivity following oral administration of [14C] aliskiren hemifumarate at 100 mg.Kg-1 level in rat. It is filed as ADME, organism-based, Albino HAN:WIST, Plasma. As to conditions: in vivo.
For the next data set, the target named is T1, Cytochrome P450 4F3 (Homo sapiens, UniProt Q08477).
T1 sequence (Q08477 whole entry): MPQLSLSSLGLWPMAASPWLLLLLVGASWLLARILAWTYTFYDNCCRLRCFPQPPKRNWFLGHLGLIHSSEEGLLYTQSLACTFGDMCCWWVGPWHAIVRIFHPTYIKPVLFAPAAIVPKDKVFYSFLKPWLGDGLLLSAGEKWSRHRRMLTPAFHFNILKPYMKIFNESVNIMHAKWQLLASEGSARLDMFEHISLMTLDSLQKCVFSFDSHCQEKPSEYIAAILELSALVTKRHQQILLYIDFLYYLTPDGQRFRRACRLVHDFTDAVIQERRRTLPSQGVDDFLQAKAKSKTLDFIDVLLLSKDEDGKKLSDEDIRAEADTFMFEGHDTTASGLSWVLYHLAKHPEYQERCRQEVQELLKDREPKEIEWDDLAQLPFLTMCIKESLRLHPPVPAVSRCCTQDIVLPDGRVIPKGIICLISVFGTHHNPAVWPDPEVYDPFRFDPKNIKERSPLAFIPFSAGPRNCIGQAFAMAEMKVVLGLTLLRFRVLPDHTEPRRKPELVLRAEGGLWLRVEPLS
In words: Metabolic clearance (ul.min.nmol-1 CYP) of aliskiren hemifumarate for CYP4F3B was determined in human liver microsome incubated with [14C]SPP100 hemifumarate. It is filed as ADME. The settings on record: microsomes.

Data set [9] can be described thus: Concentration of radioactivity in the kidney medulla following repeated oral administration of [14C] aliskiren hemifumarate at 100 mg.Kg-1 level studied at 24h after 3rd dose in rat. It is filed as ADME, organism-based, Albino HAN:WIST, Renal medulla. The settings on record: in vivo.
Data set [10] is described as follows: Mean excretion of radioactivity (48-72h) in urine and faeces following single intravenous dose of 10 mg.Kg-1 [14C] aliskiren hemifumarate in rat. It is filed as ADME, organism-based, Albino HAN:WIST, Urine/Feces. The settings on record: in vivo.
The nature of data set [11]: Excretion of radioactivity (0-24h) in faeces following single oral dose of 500 mg.Kg-1 [14C] aliskiren hemifumarate in mouse. It is filed as ADME, organism-based, TgRasH2, Feces. As to conditions: in vivo.
The nature of data set [12]: Effect of 2 week oral dosing of aliskiren hemifumarate at 100 mg.Kg-1 level on plasma creatinine level in female Callithrix jacchus. It is filed as toxicity, organism-based. The settings on record: marmoset, 336 h.
A short description of data set [13]: Cmax of aliskiren hemifumarate following 8 day once-daily dosing of SPP100B oral solution at 40 mg level studied on day 8 in men. The settings on record: male, human, plasma. It is filed as ADME, organism-based.
The nature of data set [14]: Tmax of aliskiren hemifumarate following 2 week oral dosing of aliskiren hemifumarate at 10 mg.Kg-1 level studied on […] in male Callithrix jacchus. It is filed as ADME, organism-based. As to conditions: marmoset, plasma.
The nature of data set [15]: Cmax of aliskiren hemifumarate following 4 week oral dietary dosing of aliskiren hemifumarate at 1500 mg.Kg-1 level in female mouse. It is filed as ADME, organism-based. The settings on record: CB6F1-TGrasH2, mouse, in vivo.
The nature of data set [16]: AUC (0-96h) of unlabeled aliskiren hemifumarate following intravenous administration of aliskiren hemifumarate at 10 mg.Kg-1 level in rat. It is filed as ADME, organism-based. The settings on record: Albino HAN:WIST, plasma.
Data set [17] in a line: Plasma clearance (0-96h) of unlabeled aliskiren hemifumarate following intravenous administration of aliskiren hemifumarate at 10 mg.Kg-1 level in rat. It is filed as ADME, organism-based, Albino HAN:WIST. The settings on record: in vivo.
Data set [18] is described as follows: AUC of aliskiren hemifumarate following 8 day once-daily dosing of SPP100B oral solution at 640 mg level studied on day 8 in men. It is filed as ADME, organism-based. As to conditions: male, human, plasma.
Data set [19] can be described thus: Tmax (0-168h) of unlabeled aliskiren hemifumarate following single intravenous administration of aliskiren hemifumarate at 1 mg.Kg-1 level in marmoset. It is filed as ADME, organism-based, Callithrix jacchus. The settings on record: plasma.
Data set [20] can be described thus: Cmaxspec of aliskiren hemifumarate following 2 week oral dosing of aliskiren hemifumarate at 50 mg.Kg-1 level studied on day 14 in male Callithrix jacchus. It is filed as ADME, organism-based, Plasma. The settings on record: marmoset, in vivo, 336 h.

As usually defined, the inhibition is the percentage by which the read-out fell short of the control. A lower inhibition goes with little suppression. As a reminder, the Tmax is the time from dosing to the highest level. For orientation: AUC means the area under the concentration-time curve, a measure of exposure. Usually Cmax stands for the peak of the concentration-time curve. Broadly, the AUC(0-t) is exposure summed from dosing to a finite time, without extrapolation to infinity. Low values mean less exposure, high ones more exposure.

Chain of Cytochrome P450 2D6 (P10635 whole entry): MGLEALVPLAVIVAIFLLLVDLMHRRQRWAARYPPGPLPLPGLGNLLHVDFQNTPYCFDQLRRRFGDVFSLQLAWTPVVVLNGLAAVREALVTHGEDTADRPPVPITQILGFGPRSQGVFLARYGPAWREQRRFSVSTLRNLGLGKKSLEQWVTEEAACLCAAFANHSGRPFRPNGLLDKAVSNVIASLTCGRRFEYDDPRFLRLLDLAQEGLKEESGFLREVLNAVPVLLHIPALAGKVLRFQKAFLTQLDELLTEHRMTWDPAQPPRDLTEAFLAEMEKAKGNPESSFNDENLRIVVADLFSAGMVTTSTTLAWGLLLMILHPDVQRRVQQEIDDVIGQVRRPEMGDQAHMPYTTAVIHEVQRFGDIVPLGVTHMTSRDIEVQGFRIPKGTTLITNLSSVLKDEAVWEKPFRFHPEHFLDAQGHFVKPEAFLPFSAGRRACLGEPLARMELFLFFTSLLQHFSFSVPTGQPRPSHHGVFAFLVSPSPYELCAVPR
Chain of CYP2C9 (P11712 whole entry): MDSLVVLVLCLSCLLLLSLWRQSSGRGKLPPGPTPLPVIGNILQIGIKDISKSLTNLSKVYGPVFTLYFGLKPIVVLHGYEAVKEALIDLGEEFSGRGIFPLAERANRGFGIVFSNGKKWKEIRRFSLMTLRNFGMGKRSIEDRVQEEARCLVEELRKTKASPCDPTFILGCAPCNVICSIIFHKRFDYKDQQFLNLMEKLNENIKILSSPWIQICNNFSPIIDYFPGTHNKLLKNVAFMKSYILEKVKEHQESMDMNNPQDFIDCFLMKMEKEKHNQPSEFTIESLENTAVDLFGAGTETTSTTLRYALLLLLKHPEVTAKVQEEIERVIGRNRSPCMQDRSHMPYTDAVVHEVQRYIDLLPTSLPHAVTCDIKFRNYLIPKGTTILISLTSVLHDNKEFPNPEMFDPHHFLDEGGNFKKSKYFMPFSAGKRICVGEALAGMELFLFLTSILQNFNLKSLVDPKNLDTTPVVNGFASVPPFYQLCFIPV

In the case of `COCCCOc1cc(C[C@@H](C[C@H](N)[C@@H](O)C[C@H](C(=O)NCC(C)(C)C(N)=O)C(C)C)C(C)C)ccc1OC`, 20 µM produced 1.3% inhibition against CYP2C9. In data set [1], this compound yielded a Compound recovery of 80%.
For `COCCCOc1cc(C[C@@H](C[C@H](N)[C@@H](O)C[C@H](C(=O)NCC([14CH3])([14CH3])C(N)=O)C(C)C)C(C)C)ccc1OC.O=C(O)/C=C/C(=O)O`, on Cytochrome P450 2D6, the Activity entry is on record as “OUTCOME = Observed, VALUE = CYP2D6 contributed to a minor extent on metabolism of aliskiren”. Also, the Radiolabel recovery entry was “OUTCOME = Detected” in [2]; 4.69% in [3]; 84.68% in data set [4]; 36.1% in [5]; 0.04% in data set [7]; “OUTCOME = Detected” in [9]. Further, the Radiolabel recovery is 5.05% in data set [10]; “OUTCOME = Observed/Most of the radioactivity administered was excreted during first 24h after administration and the main route of excretion was the faecal pathway” in [11]. Moreover, the Tmax in data set [6] amounted to 1 h. For the same compound, the AUC in data set [8] is 5.38 µmol·h/L; in data set [8] (iv, 10 mg/kg), 8.08 µmol·h/L. This compound had a CL at Cytochrome P450 4F3 of 24 µL·min/nmol.
Take `COCCCOc1cc(C[C@@H](C[C@H](N)[C@@H](O)C[C@H](C(=O)NCC(C)(C)C(N)=O)C(C)C)C(C)C)ccc1OC.COCCCOc1cc(C[C@@H](C[C@H](N)[C@@H](O)C[C@H](C(=O)NCC(C)(C)C(N)=O)C(C)C)C(C)C)ccc1OC.O=C(O)/C=C/C(=O)O` [ALISKIREN FUMARATE]: the CREAT_CHANGE_BY in [12] is 130%. The Cmax in [13] is 6.2 ng/mL; in [15], 1020 ng/mL. The Tmax in data set [14] is 2 h; in [19], 4.98 min. Besides, the AUC(0-t) at 96 h in data set [16] turned out to be 12.6 µM·h. The compound further had a Plasma clearance in data set [17] of 1.2 L·h/kg. For the same compound, the AUC at 192 h in data set [18] was found to be 2970 ng·h/mL. The Cmax normalised in data set [20] was 0.246 (ug/ml)/(mg/kg).
